Experimental data as given in ChEMBL document CHEMBL1201862, “PubChem BioAssay data set” (2004).
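Tested at 5 concentrations; 48 h exposure; 96-well plates; endpoints linearly interpolated, else capped at highest concentration. GI50: concentration for 50% inhibition of growth.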 The source made the active and inactive calls. No stated cut-off is given here; in the data, active = GI50 up to about 1.1 µM and inactive = higher.

Key:
Test in all cases: NCI anticancer screen, dose series, 48 h
[1] = system: HL-60
[2] = system: Malme-3M
[3] = system: NCI-H23
[4] = system: HCT-15
[5] = system: NCI-H460
[6] = system: UACC-257
[7] = system: OVCAR-8
[8] = system: M14
[9] = system: HCC 2998
[10] = system: NCI-H226
[11] = system: SK-MEL-2
[12] = system: OVCAR-3
[13] = system: TK-10
[14] = system: RPMI-8226
[15] = system: LOX IMVI
[16] = system: OVCAR-5
[17] = system: A498
[18] = system: RXF 393

CC1(C)OC(=O)C(=Cc2ccc(O)cc2)C(=O)O1
GI50 [1]: > 100 µM (inactive)
GI50 [2]: > 100 µM (inactive)
GI50 [3]: > 100 µM (inactive)
GI50 [4]: > 100 µM
GI50 [5]: > 100 µM (inactive)
GI50 [6]: > 100 µM (inactive)
GI50 [7]: > 100 µM (inactive)
GI50 [8]: > 100 µM (inactive)
GI50 [9]: > 100 µM (inactive)
GI50 [10]: > 100 µM (inactive)
GI50 [11]: > 100 µM (inactive)
GI50 [12]: > 100 µM (inactive)
GI50 [13]: > 100 µM (inactive)
GI50 [14]: > 100 µM (inactive)
GI50 [15]: > 100 µM (inactive)
GI50 [16]: > 100 µM (inactive)
GI50 [17]: > 100 µM (inactive)

C1COCCSC2=C(SCCO1)SC(=C1SC3=C(SCCOCCOCCS3)S1)S2
GI50 [1]: > 100 µM (inactive)
GI50 [2]: 98.9 µM (inactive)
GI50 [3]: > 100 µM (inactive)
GI50 [4]: > 100 µM
GI50 [5]: 96.4 µM (inactive)
GI50 [6]: > 100 µM (inactive)
GI50 [7]: 53.5 µM (inactive)
GI50 [8]: > 100 µM (inactive)
GI50 [9]: > 100 µM (inactive)
GI50 [10]: > 100 µM (inactive)
GI50 [11]: 84.3 µM (inactive)
GI50 [18]: 32.8 µM (inactive)
GI50 [12]: > 100 µM (inactive)
GI50 [13]: > 100 µM (inactive)
GI50 [15]: > 100 µM (inactive)
GI50 [16]: > 100 µM (inactive)
GI50 [17]: > 100 µM (inactive)

O=C(O)\C=C/C=C/C=C/C=C/C(=O)O
GI50 [1]: > 100 µM (inactive)
GI50 [2]: > 100 µM (inactive)
GI50 [3]: > 100 µM (inactive)
GI50 [4]: > 100 µM
GI50 [5]: > 100 µM (inactive)
GI50 [6]: > 100 µM (inactive)
GI50 [7]: > 100 µM (inactive)
GI50 [8]: > 100 µM (inactive)
GI50 [9]: > 100 µM (inactive)
GI50 [10]: > 100 µM (inactive)
GI50 [11]: > 100 µM (inactive)
GI50 [18]: > 100 µM (inactive)
GI50 [12]: > 100 µM (inactive)
GI50 [14]: > 100 µM (inactive)
GI50 [15]: > 100 µM (inactive)
GI50 [16]: > 100 µM (inactive)
GI50 [17]: > 100 µM (inactive)

Nc1cc2c(C3OC(CO)C(O)C3O)n[nH]c2c(=S)[nH]1 (stereo not given)
GI50 [1]: 41.2 µM (inactive)
GI50 [2]: > 100 µM (inactive)
GI50 [3]: > 100 µM (inactive)
GI50 [4]: 94 µM
GI50 [5]: > 100 µM (inactive)
GI50 [6]: > 100 µM (inactive)
GI50 [7]: > 100 µM (inactive)
GI50 [8]: > 100 µM (inactive)
GI50 [9]: > 100 µM (inactive)
GI50 [10]: > 100 µM (inactive)
GI50 [11]: 98.2 µM (inactive)
GI50 [18]: 32.7 µM (inactive)
GI50 [14]: > 100 µM (inactive)
GI50 [16]: > 100 µM (inactive)
GI50 [17]: > 100 µM (inactive)

O=C1/C(=C/c2ccccc2Cl)COc2ccc(Br)cc21
GI50 [1]: 18.5 µM (inactive)
GI50 [2]: > 100 µM (inactive)
GI50 [3]: > 100 µM (inactive)
GI50 [5]: > 100 µM (inactive)
GI50 [6]: > 100 µM (inactive)
GI50 [7]: 56.9 µM (inactive)
GI50 [9]: > 100 µM (inactive)
GI50 [11]: 82.8 µM (inactive)
GI50 [18]: 39 µM (inactive)
GI50 [12]: 37.3 µM (inactive)
GI50 [13]: > 100 µM (inactive)
GI50 [14]: 2.1 µM (inactive)
GI50 [15]: > 100 µM (inactive)
GI50 [16]: > 100 µM (inactive)
GI50 [17]: > 100 µM (inactive)

Cc1ccc(C)c(N2C(=O)C(=O)C(c3nc4ccccc4s3)/C(=N/NC(=O)NN)C2=O)c1 (stereo not given)
GI50 [1]: > 100 µM (inactive)
GI50 [2]: > 100 µM (inactive)
GI50 [3]: > 100 µM (inactive)
GI50 [4]: > 100 µM
GI50 [5]: > 100 µM (inactive)
GI50 [6]: > 100 µM (inactive)
GI50 [7]: > 100 µM (inactive)
GI50 [8]: > 100 µM (inactive)
GI50 [9]: > 100 µM (inactive)
GI50 [10]: > 100 µM (inactive)
GI50 [11]: > 100 µM (inactive)
GI50 [18]: > 100 µM (inactive)
GI50 [12]: > 100 µM (inactive)
GI50 [13]: > 100 µM (inactive)
GI50 [17]: > 100 µM (inactive)

N#Cc1sc2nc3c(c(-c4ccccc4)c2c1N)CCCC3
GI50 [1]: > 100 µM (inactive)
GI50 [2]: > 100 µM (inactive)
GI50 [3]: > 100 µM (inactive)
GI50 [4]: 60.5 µM
GI50 [5]: 55.2 µM (inactive)
GI50 [6]: > 100 µM (inactive)
GI50 [7]: > 100 µM (inactive)
GI50 [8]: > 10 µM (inactive)
GI50 [9]: > 100 µM (inactive)
GI50 [10]: > 100 µM (inactive)
GI50 [11]: > 100 µM (inactive)
GI50 [18]: 41.8 µM (inactive)
GI50 [12]: > 10 µM (inactive)
GI50 [13]: > 100 µM (inactive)
GI50 [14]: > 100 µM (inactive)
GI50 [15]: 48 µM (inactive)
GI50 [16]: > 100 µM (inactive)
GI50 [17]: > 100 µM (inactive)

CCCCOC(=O)NC(=O)c1cn(CCCOC(=O)NCCCCCCNC(=O)OCCCn2cc(C(=O)NC(=O)OCCCC)c(=O)[nH]c2=O)c(=O)[nH]c1=O
GI50 [1]: > 100 µM (inactive)
GI50 [2]: > 100 µM (inactive)
GI50 [3]: 44.6 µM (inactive)
GI50 [4]: > 100 µM
GI50 [5]: > 100 µM (inactive)
GI50 [6]: > 100 µM (inactive)
GI50 [7]: > 100 µM (inactive)
GI50 [8]: > 100 µM (inactive)
GI50 [9]: > 100 µM (inactive)
GI50 [11]: > 100 µM (inactive)
GI50 [18]: > 100 µM (inactive)
GI50 [12]: > 100 µM (inactive)
GI50 [13]: 41.8 µM (inactive)
GI50 [14]: > 100 µM (inactive)
GI50 [15]: > 100 µM (inactive)
GI50 [16]: > 100 µM (inactive)
GI50 [17]: > 100 µM (inactive)

N#CCC(=O)Nc1ccccc1O
GI50 [1]: > 100 µM (inactive)
GI50 [2]: > 100 µM (inactive)
GI50 [3]: > 100 µM (inactive)
GI50 [4]: > 100 µM
GI50 [5]: > 100 µM (inactive)
GI50 [6]: > 100 µM (inactive)
GI50 [7]: > 100 µM (inactive)
GI50 [8]: > 100 µM (inactive)
GI50 [9]: > 100 µM (inactive)
GI50 [10]: > 100 µM (inactive)
GI50 [11]: > 100 µM (inactive)
GI50 [18]: > 100 µM (inactive)
GI50 [12]: > 100 µM (inactive)
GI50 [13]: > 100 µM (inactive)
GI50 [14]: > 100 µM (inactive)
GI50 [16]: > 100 µM (inactive)
GI50 [17]: > 100 µM (inactive)

CCOc1ccc(/N=C/c2c3ccccc3nc3ccccc23)cc1
GI50 [1]: 11 µM (inactive)
GI50 [2]: 49.5 µM (inactive)
GI50 [3]: 54 µM (inactive)
GI50 [4]: 25.1 µM
GI50 [5]: 48.9 µM (inactive)
GI50 [6]: 55.1 µM (inactive)
GI50 [7]: 65.3 µM (inactive)
GI50 [8]: 55.2 µM (inactive)
GI50 [9]: > 100 µM (inactive)
GI50 [10]: > 100 µM (inactive)
GI50 [11]: 31.3 µM (inactive)
GI50 [18]: 46.2 µM (inactive)
GI50 [12]: 31.1 µM (inactive)
GI50 [13]: 83 µM (inactive)
GI50 [14]: 21.8 µM (inactive)
GI50 [15]: 40.1 µM (inactive)
GI50 [16]: > 10 µM (inactive)
GI50 [17]: 68.1 µM (inactive)

CC12C=C[C@]3(CC[C@@H]4[C@@](C)(CO)CCC[C@]4(C)C3CC1)C2 (stereo not given in full)
GI50 [1]: 17.9 µM (inactive)
GI50 [2]: 20.5 µM (inactive)
GI50 [3]: 18 µM (inactive)
GI50 [4]: 17 µM
GI50 [5]: 21 µM (inactive)
GI50 [6]: 18.5 µM (inactive)
GI50 [7]: 21.4 µM (inactive)
GI50 [8]: 15.7 µM (inactive)
GI50 [9]: > 10 µM (inactive)
GI50 [11]: 17.3 µM (inactive)
GI50 [18]: 13.7 µM (inactive)
GI50 [12]: 18.2 µM (inactive)
GI50 [13]: 20.1 µM (inactive)
GI50 [14]: 17.9 µM (inactive)
GI50 [15]: 15.6 µM (inactive)
GI50 [16]: 6.01 µM (inactive)
GI50 [17]: 22.9 µM (inactive)

O=C(OC[C@H]1O[C@@H](OC(=O)c2cc(O)c(O)c(O)c2)[C@H](OC(=O)c2cc(O)c(O)c(O)c2)[C@@H](OC(=O)c2cc(O)c(O)c(O)c2)[C@@H]1OC(=O)c1cc(O)c(O)c(O)c1)c1cc(O)c(O)c(O)c1 [PENTAGALLOYL GLUCOSE]
GI50 [1]: 3.65 µM (inactive)
GI50 [3]: 2.16 µM (inactive)
GI50 [4]: 5.21 µM
GI50 [5]: 3.27 µM (inactive)
GI50 [6]: 14.9 µM (inactive)
GI50 [7]: 5.22 µM (inactive)
GI50 [8]: 7.23 µM (inactive)
GI50 [9]: 3.21 µM (inactive)
GI50 [10]: 1.49 µM (inactive)
GI50 [11]: 10.7 µM (inactive)
GI50 [18]: 7.73 µM (inactive)
GI50 [12]: 3.78 µM (inactive)
GI50 [13]: 4.88 µM (inactive)
GI50 [14]: 2.76 µM (inactive)
GI50 [15]: 1.72 µM (inactive)
GI50 [16]: 7.94 µM (inactive)
GI50 [17]: 6.32 µM (inactive)
